The values that follow come from PubChem BioAssay (NCI).

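Where inhibition never reached the appropriate level, the endpoint shown equals the highest concentration tested. Otherwise, values were interpolated linearly from a five-concentration, 48-hour dose response in 96-well plates. At the TGI there is no net growth.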

What all share (assay): NCI-60 cell line screen, 48 h
The subject of test [1] is SK-OV-3 ovarian.
The subject of test [2] is NCI-H226 lung.
Test [3] relates to T-47D breast.
Test [4] deals with HT29 colon.
Test [5] relates to 786-0 renal.
Test [6] deals with SW-620 colon.
The subject of test [7] is PC-3 prostate.
Test [8] concerns SK-MEL-5 melanoma.
For test [9], the system named is A498 renal.
The test system of test [10] is NCI-H522 lung.

Regarding `Cc1cc(NS(=O)(=O)c2ccc(NC(NC(=O)C(C(F)(F)F)C(F)(F)F)(C(F)(F)F)C(F)(F)F)cc2)no1`, the TGI in test [1], in test [2], in [3], in test [4], in test [5] and in test [6] was more than 100 µM throughout. Further, the TGI in test [7] and in test [8] was more than 100 µM each time.

With `CN1CCN(C2=C(Cl)C3(OCCS3)C(F)(F)C2(F)F)CC1` (stereo not given), the TGI in [1], in [2], in test [3], in test [9], in test [4] and in [5] was more than 100 µM throughout. The TGI in test [6] was more than 100 µM; in test [10], more than 100 µM; in test [8], 61.7 µM.

As for `c1ccc2c(c1)CCCC/C2=N/OCC1CO1` (stereo not given), the TGI in test [2] is 90.9 µM; in [9], more than 100 µM; in test [4] it was more than 100 µM; in test [6] it was more than 100 µM; in [8], more than 100 µM.

`O=C(O)/C=C\C(=O)Nc1ccc(S(=O)(=O)c2ccc(NC(=O)/C=C\C(=O)O)cc2)cc1`: the TGI in test [1], in [2], in test [4], in test [5], in test [6] and in test [10] was more than 100 µM throughout. In [8], this compound gave a TGI of more than 100 µM.

With `CN(C)c1cccc2c1C(=O)C=CC21c2ccc(N(C)C)c3c(N(C)C)ccc(c23)C(c2ccccc2)C1c1ccccc1` (stereo not given), the TGI in [1] is 31.8 µM; in [2], 39.2 µM; in test [9], 22 µM; in test [4] it was 44.9 µM; in [5], 22.3 µM; in [6], 54 µM. For the same compound, the figures for the TGI in test [10], in test [7] and in test [8] were 47.7 µM, 30.2 µM and 27.5 µM, respectively.

Turning to `O=C1c2cccc(O)c2C(=O)c2c(O)cc(CO)cc21`, the TGI in [1] was more than 100 µM; in test [2], more than 100 µM; in test [9], more than 100 µM; in test [4], more than 100 µM; in [6] it was more than 100 µM; in test [10] it was 64.6 µM. The compound also showed a TGI in test [8] of 30.7 µM.

With `O=C1C2=Nc3ccccc3C(O)(C(=O)O)N2c2ccccc21` (stereo not given), the TGI is more than 100 µM in test [2]; 80.9 µM in [9]; 49.2 µM in [4]; more than 100 µM in test [5]; more than 100 µM in [6]; 50.2 µM in test [10]. Also, the TGI in test [7] amounted to 20 µM; in test [8], 27.5 µM.

Take `COc1ccc(/C=N/n2c(C)nc3c(sc(=S)n3-c3ccccc3)c2=O)cc1`: the TGI is more than 100 µM in [1]; more than 100 µM in test [2]; more than 100 µM in test [9]; more than 100 µM in [4]; more than 100 µM in test [6]; 46.4 µM in test [10]. This compound also gave a TGI in [8] of more than 100 µM.

As to `COc1nc2c(N3CCCC3)nc(N3CCNCC3)nc2nc1NCc1ccccc1`, the TGI was determined as 4.68 µM in [1]; 7.1 µM in test [2]; 3.19 µM in test [3]; 4.65 µM in test [4]; 2.66 µM in [5]; 11.1 µM in [6]. The TGI in test [10] came out at 2.54 µM; in test [7], 6.42 µM; in test [8], 2.88 µM.

In the case of `CC#CC(O)(C(=O)OC1CC(C)N(C)C(C)(C)C1)C1CCCC1` (stereo not given), the TGI in test [1], in [2], in test [3], in test [4], in [5] and in test [6] was more than 100 µM in each case. In addition, the TGI in test [10], in test [7] and in test [8] was more than 100 µM in each case.

For the compound `C/C(=C\CO)CC/C=C(\C)CNc1ccc([N+](=O)[O-])cc1`, the TGI in [1] is more than 100 µM; in test [2], more than 100 µM; in test [3] it was 80 µM; in [4], more than 100 µM; in test [5], more than 100 µM; in test [6], more than 100 µM. Moreover, the TGI came out at 66.8 µM in test [10], 66.2 µM in test [7] and 25.6 µM in test [8].

For `Cc1cccc(/C(Br)=C2/OC(=O)c3ccccc32)c1`, the TGI in test [1], in [9], in [4], in test [5], in test [6] and in test [10] was more than 100 µM each time. The TGI in test [7] and in test [8] was more than 100 µM in each case.

Take `CC1(C)N=C2C(=O)c3c([nH]c4ccccc34)[C@]3(C)CCC1CC23` (stereo not given in full): the TGI in [2], in test [9], in [4], in test [5], in test [6] and in test [10] was more than 6.25 µM throughout. Also, the TGI in test [7] and in test [8] was more than 6.25 µM each time.

For `CCN1C(=O)C(=C/C=C/c2ccc(N(CC)CC)cc2)C(=O)N(CC)C1=S`, the TGI in test [1], in test [2], in test [3], in test [4], in test [5] and in test [6] was more than 100 µM each time. Besides, the TGI in test [7] and in test [8] was more than 100 µM in each case.

Regarding `O=C(CC(C(=O)c1ccco1)c1ccco1)c1ccco1` (stereo not given), the TGI in test [1], in test [2], in test [3], in test [9], in [4] and in test [5] was more than 100 µM throughout. The TGI in test [6], in test [10] and in test [8] was more than 100 µM throughout.

For the compound `CC1(C)CC(C#Cc2ccccc2)CC(C)(C)N1O`, the TGI in test [1] is more than 100 µM; in [2], 53.6 µM; in test [3], 63.8 µM; in [4], 29.4 µM; in test [5] it was 76.7 µM; in test [6], 50.5 µM. Besides, the TGI in [7] was 29.4 µM; in test [8], 30.7 µM.

As for `c1ccc(C2CC(=NC3CCCCC3)Nc3ccccc3N2)cc1` (stereo not given), the TGI was more than 100 µM in test [1]; more than 100 µM in test [2]; 93.7 µM in test [9]; more than 100 µM in test [4]; more than 100 µM in test [5]; more than 100 µM in test [6]. Also, the TGI in test [10] is 78.1 µM; in test [7], more than 100 µM; in test [8], 43.7 µM.

For `O=C1C=CC(=O)C(CNc2ccc(C(=O)OCc3ccccc3)cc2)=C1`, the TGI in test [1] was found to be 30.8 µM; in test [2], 28 µM; in test [9], 23.5 µM; in test [4], 31.8 µM; in test [5], 13.6 µM; in test [6], 19.6 µM. In addition, the values for the TGI in test [10], in test [7] and in test [8] were 2.87 µM, 13.4 µM and 11.6 µM, respectively.

In the case of `CCOP(=O)(OCC)OC1CC(n2cc(C)c(=O)n(C)c2=O)OC1CO[Si](C)(C)C(C)(C)C` (stereo not given), the TGI in [1], in [2], in [3], in [4], in [5] and in test [6] was more than 100 µM each time. Also, the TGI in [10], in test [7] and in [8] was more than 100 µM throughout.

Turning to `O=C(O)CCCCCCCCC(=O)O`, the TGI in [1] was more than 500 µM; in test [2], more than 500 µM; in [9] it was more than 23.2 µM; in test [4], more than 500 µM; in test [6] it was more than 500 µM; in test [10] it was more than 500 µM. In addition, in test [8], the TGI was more than 500 µM.

`CSc1nc2c(ncn2C2OC(CO)C(O)C(O)C2O)c(=O)[nH]1` (stereo not given): the TGI in [1], in test [2], in test [9], in test [4], in test [6] and in test [10] was more than 100 µM in each case. For the same compound, the TGI in test [8] is more than 100 µM.

In the case of `COc1cc(C2c3cc4c(cc3[C@@H](Nc3ccc5c(c3)OCO5)C3COC(=O)[C@H]23)OCO4)cc(OC)c1O` (stereo not given in full), the TGI in test [1] is 16.3 µM; in test [2] it was 2.06 µM; in [9], 1.84 µM; in test [4], 6.07 µM; in [6], more than 37.6 µM; in [10] it was 4.49 µM. The compound also registered a TGI in test [8] of 2.64 µM.

As for `O=[N+]([O-])c1ccc2c(c1)c(N=NC(=S)Nc1ccc(Cl)cc1)c(O)n2CN1CCOCC1`, the TGI is 26.2 µM in [1]; 23.7 µM in test [2]; 20.8 µM in [3]; 16.7 µM in test [5]; 30.8 µM in test [6]; 23.2 µM in [10]. The TGI in [7] came out at 21.9 µM; in test [8], 17.7 µM.

Turning to `O=C(NN1C(=O)CSC1c1cccc(F)c1)c1ccncc1` (stereo not given), the TGI in test [1], in test [9], in test [4], in test [6], in test [10] and in [8] was more than 100 µM in each case.
